Reference: patent US20130210881A1, “ANTIMICROBIAL COMPOSITION” (Agency for Science ,Technology and Research, priority 2010, published 2013)

What was measured:
Format in all cases: cell-based
[1] = tested on: Bacillus subtilis (ATCC 23857, gram-positive); experiment: Antimicrobial analysis, MIC, B. subtilis; settings: ATCC23857, 37° C., 24 hours, concentration necessary to inhibit complete cell growth
Description: (§1) All bacteria and yeast originated from a −80° C. frozen stock. Bacteria were grown overnight at 37° C. in Tryptic Soy broth (TSB) and yeast was grown overnight at 22° C. in Yeast Mold (YM) broth. Sub-samples of these cultures were grown for three hours further and diluted to an OD600 of 0.1. The bacteria solutions (about 2˜5×10^8 cells/mL) were then added to the 96-well plate and were incubated at 37° C. for 24 hours. All experiments were run in triplicate and the reported minimum inhibitory concentration (MIC) is the concentration necessary to inhibit complete cell growth.

[2] = tested on: Candida albicans (ATCC 10231, yeast); experiment: Antimicrobial analysis, MIC, C. albicans; settings: ATCC10231, concentration necessary to inhibit complete cell growth
Description: as §1

[3] = tested on: Escherichia coli (ATCC 25922, gram-negative); experiment: Antimicrobial analysis, MIC, E. coli; settings: ATCC25922, 37° C., 24 hours, concentration necessary to inhibit complete cell growth
Description: as §1

Measured: MIC

c1ccc(C[n+]2ccn(Cc3ccc(Cn4cc[n+](Cc5ccccc5)c4)cc3)c2)cc1 [Sample 3a]
> 250 µg/mL: [1] | [2] | [3]

c1ccc(C[n+]2ccn(Cc3ccccc3Cn3cc[n+](Cc4ccccc4)c3)c2)cc1 [Sample 3b]
> 250 µg/mL: [1] | [2] | [3]

c1ccc(C[n+]2ccn(Cc3ccc(Cn4cc[n+](Cc5ccc(Cn6cc[n+](Cc7ccccc7)c6)cc5)c4)cc3)c2)cc1 [Sample 3c]
> 250 µg/mL: [1] | [2] | [3]

C(=C/CCn1cc[n+](Cc2ccccc2)c1)/CCn1cc[n+](CC/C=C\CCn2cc[n+](Cc3ccccc3)c2)c1 [Sample 3d]
> 250 µg/mL: [1] | [2] | [3]

C(=C/CCn1cc[n+](Cc2ccc(Cn3cc[n+](CC/C=C\CCn4cc[n+](Cc5ccccc5)c4)c3)cc2)c1)/CCn1cc[n+](Cc2ccccc2)c1 [Sample 3f]
> 250 µg/mL: [1] | [2] | [3]
